In PubChem BioAssay AID1963450 (Molecular Pharmacology Branch, DTP, NCI, 2024):

System: 556581-035-R-J1-PDC complex spheroid growth
Test: Anticancer human tumor 556581-035-R-J1-PDC patient-derived ovarian carcinoma cell line growth inhibition [Asc]
Settings: for IC50: curve of first compound; for viability, T/C: stronger effect = lower value; active = viability on the fitted dose curve at most 10% of control; inactive = the rest
Summary of the method: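 Tumor cells were grown as complex spheroids with human endothelial cells (HUVEC) and human mesenchymal stem cells as stroma. Agents were tested alone and in combination, in half-log steps down from the clinical Cmax, or from 10 microM where Cmax was unknown.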

[1] = second compound 0.1 µM, first compound 0.00316 µM
[2] = second compound 0.1 µM, first compound 0.01 µM
[3] = second compound 0.1 µM, first compound 0.0316 µM
[4] = second compound 0.1 µM, first compound 0.1 µM
[5] = second compound 0.316 µM, first compound 0.00316 µM
[6] = second compound 0.316 µM, first compound 0.01 µM
[7] = second compound 0.316 µM, first compound 0.0316 µM
[8] = second compound 0.316 µM, first compound 0.1 µM
[9] = second compound 1 µM, first compound 0.00316 µM
[10] = second compound 1 µM, first compound 0.01 µM
[11] = second compound 1 µM, first compound 0.0316 µM
[12] = second compound 1 µM, first compound 0.1 µM
[13] = second compound 3.16 µM, first compound 0.00316 µM
[14] = second compound 3.16 µM, first compound 0.01 µM
[15] = second compound 3.16 µM, first compound 0.0316 µM
[16] = second compound 3.16 µM, first compound 0.1 µM
[17] = second compound 10 µM, first compound 0.00316 µM
[18] = second compound 10 µM, first compound 0.01 µM
[19] = second compound 10 µM, first compound 0.0316 µM
[20] = second compound 10 µM, first compound 0.1 µM
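Also: spheroids exposed to agents for 7 days before viability read.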

COc1c(OCCCN2CCOCC2)ccc2c3n(c(=NC(=O)c4cnc(N)nc4)nc12)CCN3 + Cc1c(S(C)(=O)=O)c(-c2cc(F)cc(N3CCN(c4ccc(NS(=O)(=O)c5ccc(NC(CCN6CCC(C(=O)OCCCP(=O)(O)O)CC6)CSc6ccccc6)c(S(=O)(=O)C(F)(F)F)c5)cc4)CC3)c2)c(-c2ccc(Cl)cc2)n1C(C)C
46.9 nM: IC50 (second compound 0.1 µM)
28.4 nM: IC50 (second compound 0.316 µM)
3.16 nM: IC50 (second compound 10 µM)
10.5 nM: IC50 (second compound 3.16 µM)
inactive: viability, T/C [1] 71% | viability, T/C [2] 67.5% | viability, T/C [3] 42.1% | viability, T/C [4] 51.2% | viability, T/C (second compound 0.1 µM, first compound 0.316 µM) 29.9% | viability, T/C (second compound 0.1 µM, first compound 1 µM) 10.1% | viability, T/C [5] 75.6% | viability, T/C [6] 56.6% | viability, T/C [7] 44.4% | viability, T/C [8] 47.9% | viability, T/C (second compound 0.316 µM, first compound 0.316 µM) 16.4% | viability, T/C [9] 57.9% | viability, T/C [10] 61.3% | viability, T/C [11] 41.5% | viability, T/C [12] 27.7% | viability, T/C (second compound 1 µM, first compound 0.316 µM) 14.2% | viability, T/C [13] 59% | viability, T/C [14] 50.5% | viability, T/C [15] 41.7% | viability, T/C [16] 29% | viability, T/C (second compound 3.16 µM, first compound 0.316 µM) 23.9% | viability, T/C (second compound 3.16 µM, first compound 1 µM) 9.13% | viability, T/C [17] 48.7% | viability, T/C [18] 57.3% | viability, T/C [19] 34% | viability, T/C [20] 53.7% | viability, T/C (second compound 10 µM, first compound 0.316 µM) 11.1% | viability, T/C (second compound 10 µM, first compound 1 µM) 19.6%
18.9 nM: IC50 (second compound 1 µM)
active: viability, T/C (second compound 0.316 µM, first compound 1 µM) 10.5% | viability, T/C (second compound 1 µM, first compound 1 µM) 9.33%

NC(=O)C(=Cn1cnc(-c2cc(C(F)(F)F)cc(C(F)(F)F)c2)n1)c1cncnc1 + Cc1c(S(C)(=O)=O)c(-c2cc(F)cc(N3CCN(c4ccc(NS(=O)(=O)c5ccc(NC(CCN6CCC(C(=O)OCCCP(=O)(O)O)CC6)CSc6ccccc6)c(S(=O)(=O)C(F)(F)F)c5)cc4)CC3)c2)c(-c2ccc(Cl)cc2)n1C(C)C
148 nM: IC50 (second compound 3.16 µM)
inactive: viability, T/C (second compound 0.1 µM, first compound 0.000949 µM) 70.9% | viability, T/C (second compound 0.1 µM, first compound 0.003 µM) 72.3% | viability, T/C (second compound 0.1 µM, first compound 0.00949 µM) 75% | viability, T/C (second compound 0.1 µM, first compound 0.03 µM) 57.8% | viability, T/C (second compound 0.1 µM, first compound 0.0949 µM) 75.9% | viability, T/C (second compound 0.1 µM, first compound 0.3 µM) 66.1% | viability, T/C (second compound 0.316 µM, first compound 0.000949 µM) 81.2% | viability, T/C (second compound 0.316 µM, first compound 0.003 µM) 75.6% | viability, T/C (second compound 0.316 µM, first compound 0.00949 µM) 80.3% | viability, T/C (second compound 0.316 µM, first compound 0.03 µM) 69.5% | viability, T/C (second compound 0.316 µM, first compound 0.0949 µM) 66.3% | viability, T/C (second compound 0.316 µM, first compound 0.3 µM) 52.9% | viability, T/C (second compound 1 µM, first compound 0.000949 µM) 78% | viability, T/C (second compound 1 µM, first compound 0.003 µM) 63.5% | viability, T/C (second compound 1 µM, first compound 0.00949 µM) 63.8% | viability, T/C (second compound 1 µM, first compound 0.03 µM) 68.5% | viability, T/C (second compound 1 µM, first compound 0.0949 µM) 52.9% | viability, T/C (second compound 1 µM, first compound 0.3 µM) 59.5% | viability, T/C (second compound 3.16 µM, first compound 0.000949 µM) 57.2% | viability, T/C (second compound 3.16 µM, first compound 0.003 µM) 61.2% | viability, T/C (second compound 3.16 µM, first compound 0.00949 µM) 70.3% | viability, T/C (second compound 3.16 µM, first compound 0.03 µM) 63.9% | viability, T/C (second compound 3.16 µM, first compound 0.0949 µM) 59.6% | viability, T/C (second compound 3.16 µM, first compound 0.3 µM) 34% | viability, T/C (second compound 10 µM, first compound 0.000949 µM) 73% | viability, T/C (second compound 10 µM, first compound 0.003 µM) 63.9% | viability, T/C (second compound 10 µM, first compound 0.00949 µM) 61% | viability, T/C (second compound 10 µM, first compound 0.03 µM) 55% | viability, T/C (second compound 10 µM, first compound 0.0949 µM) 49.2% | viability, T/C (second compound 10 µM, first compound 0.3 µM) 45.6%
> 300 nM: IC50 (second compound 0.1 µM) | IC50 (second compound 0.316 µM) | IC50 (second compound 1 µM)
87.6 nM: IC50 (second compound 10 µM)

NC1CCC(NC2CC2c2ccccc2)CC1 (stereo not given) + Cc1c(S(C)(=O)=O)c(-c2cc(F)cc(N3CCN(c4ccc(NS(=O)(=O)c5ccc(NC(CCN6CCC(C(=O)OCCCP(=O)(O)O)CC6)CSc6ccccc6)c(S(=O)(=O)C(F)(F)F)c5)cc4)CC3)c2)c(-c2ccc(Cl)cc2)n1C(C)C
> 100 nM: IC50 (second compound 0.1 µM) | IC50 (second compound 0.316 µM) | IC50 (second compound 1 µM) | IC50 (second compound 3.16 µM) | IC50 (second compound 10 µM)
inactive: viability, T/C (second compound 0.1 µM, first compound 0.000316 µM) 74.9% | viability, T/C (second compound 0.1 µM, first compound 0.001 µM) 90.3% | viability, T/C [1] 64.5% | viability, T/C [2] 77.2% | viability, T/C [3] 75.6% | viability, T/C [4] 76.9% | viability, T/C (second compound 0.316 µM, first compound 0.000316 µM) 74% | viability, T/C (second compound 0.316 µM, first compound 0.001 µM) 83.3% | viability, T/C [5] 67.2% | viability, T/C [6] 82.5% | viability, T/C [7] 80.5% | viability, T/C [8] 75.5% | viability, T/C (second compound 1 µM, first compound 0.000316 µM) 62.9% | viability, T/C (second compound 1 µM, first compound 0.001 µM) 64% | viability, T/C [9] 67.8% | viability, T/C [10] 64.8% | viability, T/C [11] 62.4% | viability, T/C [12] 56.4% | viability, T/C (second compound 3.16 µM, first compound 0.000316 µM) 58.8% | viability, T/C (second compound 3.16 µM, first compound 0.001 µM) 73.7% | viability, T/C [13] 64.5% | viability, T/C [14] 54.4% | viability, T/C [15] 71.9% | viability, T/C [16] 58.2% | viability, T/C (second compound 10 µM, first compound 0.000316 µM) 61.5% | viability, T/C (second compound 10 µM, first compound 0.001 µM) 57.2% | viability, T/C [17] 56.8% | viability, T/C [18] 50.1% | viability, T/C [19] 69.5% | viability, T/C [20] 63.4%
